Reference: PMC5187899, “Discovery of Anti-Hypertensive Oligopeptides from Adlay Based on In Silico Proteolysis and Virtual Screening” (International Journal of Molecular Sciences, 2016)
No end group written: not given here.

Target: T1, ACE from rabbit lungs (Oryctolagus cuniculus, UniProt P12822)
T1 construct: ACE from rabbit lungs and HHL was supplied by Sigma-Aldrich; purchased Sigma-Aldrich (St. Louis, MO, USA); host or cells: rabbit lung tissue
T1 sequence (P12822 34-1310): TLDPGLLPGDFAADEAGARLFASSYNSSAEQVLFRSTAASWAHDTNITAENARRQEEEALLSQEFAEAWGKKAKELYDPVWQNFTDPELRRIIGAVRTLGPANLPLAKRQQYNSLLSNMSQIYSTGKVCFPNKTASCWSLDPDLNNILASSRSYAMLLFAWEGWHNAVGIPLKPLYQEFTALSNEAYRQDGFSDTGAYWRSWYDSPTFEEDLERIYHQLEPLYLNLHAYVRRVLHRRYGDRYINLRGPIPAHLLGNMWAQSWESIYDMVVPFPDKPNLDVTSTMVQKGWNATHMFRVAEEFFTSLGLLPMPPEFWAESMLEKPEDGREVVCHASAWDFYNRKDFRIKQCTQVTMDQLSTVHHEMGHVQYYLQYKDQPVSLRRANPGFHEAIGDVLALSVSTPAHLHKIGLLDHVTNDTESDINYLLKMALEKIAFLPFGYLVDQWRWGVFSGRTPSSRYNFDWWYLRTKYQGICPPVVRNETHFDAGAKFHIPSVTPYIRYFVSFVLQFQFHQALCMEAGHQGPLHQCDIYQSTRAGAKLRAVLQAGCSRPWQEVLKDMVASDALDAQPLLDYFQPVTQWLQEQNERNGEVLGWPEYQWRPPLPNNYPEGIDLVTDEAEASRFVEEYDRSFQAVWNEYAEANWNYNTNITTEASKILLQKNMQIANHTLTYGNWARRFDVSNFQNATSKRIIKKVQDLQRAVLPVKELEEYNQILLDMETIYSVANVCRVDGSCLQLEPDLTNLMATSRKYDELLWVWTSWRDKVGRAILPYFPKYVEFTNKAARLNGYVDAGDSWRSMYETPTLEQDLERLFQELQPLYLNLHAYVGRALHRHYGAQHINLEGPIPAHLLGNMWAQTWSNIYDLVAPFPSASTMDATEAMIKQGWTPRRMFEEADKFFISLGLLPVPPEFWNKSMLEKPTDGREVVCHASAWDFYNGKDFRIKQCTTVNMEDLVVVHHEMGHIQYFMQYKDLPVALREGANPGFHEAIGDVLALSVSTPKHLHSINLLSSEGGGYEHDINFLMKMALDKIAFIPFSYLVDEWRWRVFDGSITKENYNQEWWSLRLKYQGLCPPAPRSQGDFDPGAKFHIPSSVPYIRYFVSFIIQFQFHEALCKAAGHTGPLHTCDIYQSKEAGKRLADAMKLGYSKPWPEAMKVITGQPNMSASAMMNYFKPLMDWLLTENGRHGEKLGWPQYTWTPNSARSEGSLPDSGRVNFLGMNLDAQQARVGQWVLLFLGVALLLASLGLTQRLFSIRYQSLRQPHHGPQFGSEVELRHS
Assay: ACE inhibitory activity assay by RP-HPLC (HHL substrate, hippuric acid detection)
Format: biochemical
Details: for ACE inhibitory activity (in words): chromatograms at 0.048 mg/mL
Description: The potential oligopeptides obtained by docking were chemically synthesized by the Beijing Scilight Biotechnology Ltd., Co. (Beijing, China). The purity levels of the synthesized oligopeptides were all greater than 98% by HPLC analysis. ACE from rabbit lungs and HHL was supplied by Sigma-Aldrich (St. Louis, MO, USA). Acetonitrile of HPLC grade was purchased from Fisher Scientific (Pittsburgh, PA, USA). Lisinopril was supplied by Beijing HWRK Chem Co., Ltd. (Beijing, China) with more than 98% purity. All other used chemicals were of analytical grade.
The assay of in vitro ACE inhibitory activity was performed by RP-HPLC method by Yuan. Initially, the mixture was incubated at 37 °C for 10 min, including 10 μL of samples and 20 μL ACE (2 mU). After adding 20 μL of 2 mM HHL, the mixture continued to be incubated for 60 min until acetonitrile was added to terminate reaction. HA from the hydrolysis of the substrate HHL was detected by RP-HPLC on a C18 column (250 × 4.6 mm, 5 μm, Tianhe) at 228 nm. The column was eluted at a flow rate of 1 mL/min using 25% (v/v) acetonitrile in water with 0.05% trifluoroacetic acid. Lisinopril and borate buffer solution were used as positive and negative control, respectively. The formula (1) for computing ACE inhibitory rate is shown as follows. Wherein, Acontrol is the peak area of HA by negative control and Asample is the peak area of HA by the sample. The IC50 was calculated by the dosage and efficiency curve based on the 50% inhibition of ACE. (1) Inhibitory activity (%)=Acontrol−Asample/Acontrol×100%

Compound: VSAIGF [oligopeptide from in silico proteolysis of adlay prolamins, chemically synthesized]
- ACE inhibitory activity (in words) (RP-HPLC): could not obtain the desirable activities of ACE

Compound: NCHEF [oligopeptide from in silico proteolysis of adlay prolamins, chemically synthesized]
- ACE inhibitory activity (in words) (RP-HPLC): could not obtain the desirable activities of ACE

Compound: NPATY [NPATY]
- IC50 (RP-HPLC on C18 column, 228 nm, 10 μL sample + 20 μL ACE (2 mU), 37 °C 10 min pre-incubation, 20 μL of 2 mM HHL, 60 min, from dosage and efficiency curve): 61.9 ± 2.77 µM

Compound: NCCCC[C@H](N[C@@H](CCc1ccccc1)C(=O)O)C(=O)N1CCC[C@H]1C(=O)O [Lisinopril, lisinopril, reference compound]
- ACE inhibition ratio (lisinopril 2 × 10^−9 mol/L, RP-HPLC, 228 nm, 37 °C, 2 mM HHL, 60 min): 77.86% ± 0.15%
